We go through twelve compounds from patent publication US20070075630A1, “Organic compositions” (priority 2005, published 2007).

SMILES strings stand for the structures.

One data set in a line: solubility of organic semiconductor in solvent (Table 1, formulation and processing). The settings on record: solvent THF. Format: physicochemical.
With `CC(CO)COc1ccc(-c2ccc(-c3ccc(-c4ccc(OCC(C)CO)cc4)s3)s2)cc1` (stereo not drawn) [3(3OH,2Me)-O-PTTP- O-3(3OH,2Me), 3-(4-{5′-[4-(3-Hydroxy-2-methyl-propoxy)-phenyl]-[2,2′]bithiophenyl-5-yl}-phenoxy)-2-methyl-propan-1-ol], the “solubility in THF” value is listed as “Low solubility in THF (600 ppm)”. The same measure, in the same setting: in the case of `CC(COc1ccc(-c2ccc(-c3ccc(-c4ccc(OCC(C)COC5CCCCO5)cc4)s3)s2)cc1)COC1CCCCO1` (stereo not drawn) [3(3THPO,2Me)-O-PTTP- O-3(THPO,2Me), 5,5′-Bis-[4-(2-methyl-propoxy-tetrahydro-pyran)-phenoxy]-[2,2′]bithiophenyl] it was “Well soluble in THF (about 75,000 ppm)”. Still for that read-out and setting: then `CCC(CC)COc1ccc(-c2ccc(-c3ccc(-c4ccc(OCC(CC)CC)cc4)s3)s2)cc1` [4(2Et)-O-PTTP-O- 4(2Et), 5,5′-bis(4-(2-ethylbutyloxy)phenyl)-2,2′-bithiophene], with “solubility in THF about 4,900 ppm”; and `CC(C)CCCOc1ccc(-c2ccc(-c3ccc(-c4ccc(OCCCC(C)C)cc4)s3)s2)cc1` [5(4Me)-O-PTTP-O-5(4Me), 5,5′-bis(4-(4-methylpentyloxy)phenyl)-2,2′-bithiophene], with “solubility in THF about 5400 ppm. DSC: mp =250° C., smaller”.

In the case of `CCCCCC(CC)Oc1ccc(-c2ccc(-c3ccc(-c4ccc(OC(CC)CCCCC)cc4)s3)s2)cc1` (stereo not drawn) [6(1Et)-O-PTTP-O- 6(1Et), 5,5═-Bis-[4-(1-ethyl-hexyloxy)-phenyl]-[2,2′]bithiophenyl], the “solubility in THF” value is given as “Well soluble in THF (about 330,000 ppm) DSC: mp = 97-102° C., (broad transition)”. The same measure, in the same setting: then `CCCCCC(C)Oc1ccc(-c2ccc(-c3ccc(-c4ccc(OC(C)CCCCC)cc4)s3)s2)cc1` (stereo not drawn) [6(1Me)-O-PTTP-O- 6(1Me), 5,5′bis(4-(1-methylhexyloxy)phenyl)-2,2′-bithiophene], with ~89,000 ppm. On the same count and under the same terms, in the case of `CCCCC(C)COc1ccc(-c2ccc(-c3ccc(-c4ccc(OCC(C)CCCC)cc4)s3)s2)cc1` (stereo not drawn) [6(2Me)-O-PTTP-O- 6(2Me), 5,5′-bis(4-(2-methylhexyloxy)phenyl)-2,2′-bithiophene] it was “sufficiently soluble in THF (about 61,000 ppm) DSC: mp = 197 °C”. On the same count and under the same terms, in the case of `CC(C)(C)[Si](OCCCCCCOc1ccc(-c2ccc(-c3ccc(-c4ccc(OCCCCCCO[Si](c5ccccc5)(c5ccccc5)C(C)(C)C)cc4)s3)s2)cc1)(c1ccccc1)c1ccccc1` [6(6TBDPSO)-O- PTTP-O- 6(6TBDPSO), 5,5′-Bis-{4-[6-(tert-butyl-diphenyl-silanyloxy)-hexyloxy]-phenyl}-[2,2′]bithiophenyl] it was “# THF (about 310,000 ppm)”.

For the compound `CCCCCCOc1ccc(-c2ccc(-c3ccc(-c4ccc(OCCCCCC)cc4)s3)s2)cc1` [6-O-PTTP-O-6, 5,5′-bis(4-hexyloxyphenyl)-2,2′-bithiophene], the “solubility in THF” value is given as “solubility in THF about 600 ppm, lowest value by far. Differential scanning calorimetry”. For `C=CC(C=C)OC(=O)CCCCCOc1ccc(-c2ccc(-c3ccc(-c4ccc(OCCCCCC(=O)OC(C=C)C=C)cc4)s3)s2)cc1` [6-[4-(5′-[5-(1-Vinyl-allyloxycarbonyl)-pentyloxy]-phenyl}-[2,2′]bithiophenyl-5-yl)-phenoxy]-hexanoic acid 1-vinyl-allyl ester], the “solubility in THF” value is recorded as “well soluble in THF (131,000 ppm)”. Still for that read-out and setting: then `CC(C)CCCC(C)CCOc1ccc(-c2ccc(-c3ccc(-c4ccc(OCCC(C)CCCC(C)C)cc4)s3)s2)cc1` (stereo not drawn) [8(3,7Me)-O-PTTP-O- 8(3,7Me), 5,5′-bis(4-(3,7-dimethyloctyloxy)phenyl)-2,2′-bithiophene], with “solubility in THF about 12,000 ppm DCS: mp = 192° C.,”.

The same data set, now with this note: solvent not stated.
For the compound `CCCOCCc1ccc(-c2ccc(-c3ccc(-c4ccc(CCOCCC)cc4)s3)s2)cc1` [3O2PTTP2O3, 5,5═-Bis(4-(propxyethyl)phenyl)-2,2′-bithiophene], the “solubility (in words, compared with 6PTTP6)” value is “Solubility like 6PTTP6”.
